Legend:
[1] = system: marrow cells (mononuclear cell fraction); assay: Proliferation-stimulating effect on marrow cell of mouse (3H-TdR uptake); format: cell-based, mouse (BALB/c); conditions: percentage of control, 72 h; for activity at 0.1 µg/mL: 10^-1 μg/ml; for activity at 0.01 µg/mL: 10^-2 μg/ml; for activity at 0.001 µg/mL: 10^-3 μg/ml
Method in brief: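 Mononuclear marrow cell fraction from 7-week-old female BALB/c mouse thigh bone, 1.5×10^6 cells/ml in 10% FCS RPMI 1640, cultured with test sample 72 h at 37° C. ³H-thymidine (0.5 μCi/well) then added for 8 h; nuclear ³H-TdR uptake counted by liquid scintillation.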

[2] = Life-span-increasing effect on irradiation of a lethal dose of radiation; format: in vivo, mouse (BDF1); conditions: 10 mice/group, 9 Gy X-ray, 0.1 mg/kg i.v. days 0, 4, 8
Experimental: Pharmacological Test 4: Life-Span-Increasing Effect on Irradiation of a Lethal Dose of Radiation
An experiment was carried out by using 6 week old female BDF1 mice purchased from Japan SLC Co., Ltd., with 10 mice made one group.
The entire bodies of the entire body of the mice were irradiated with 9 Gy of X-rays by using a Hitachi X-ray irradiator (MBR-1520R), and the day on which the X-ray was irradiated was referred to as "day 0".

Acute toxicity = format: in vivo; conditions: 7 days
Experimental: Test Example 2: Acute Toxicity
0.1, 1.0 or 10 mg/kg of Compound 5 or 33 was intravenously administered to Crj:CD rats (male, 5 weeks old), 6 rats in one group. 7 days after the administration, a toxicity test was carried out.

blood platelets [3] = assay: Thrombocytopenia-inhibiting effect in X-ray-irradiated mice; format: in vivo, mouse (BDF1); conditions: 10 days after 5 Gy X-ray; 0.1 mg/kg i.v. within 2 h; mean ± SD; vehicle per series 10.3, 6.8, 6.7; non-treatment 68.2, 96.9, 73.0
Method in brief: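 Female BDF1 mice, 6 weeks old, six per group, given 5 Gy whole-body X-ray, then 0.1 mg/kg i.v. via tail vein within 2 hours. Platelets counted by hemocytometer in fundus-vein blood 10 days later; untreated and vehicle groups run alongside.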

blood platelets [4] = assay: Blood-platelet-increasing effect upon normal mouse; format: in vivo, mouse (BDF1); conditions: normal mice; 6 days after 0.1 mg/kg i.v.; mean ± SD; vehicle per series 58.2, 63.0, 71.1
Method in brief: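 Female BDF1 mice, 6 weeks old (5 per group), received test sample at 0.1 mg/kg into the caudal vein. Six days later, fundus-vein blood was taken and platelets counted on a multi-channel hemocytometer, compared against vehicle-treated animals.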

[5] = system: mononuclear cell fraction of human umbilical cord blood; assay: Proliferation-stimulating effect on mononuclear cell fraction of human umbilical cord blood (3H-TdR uptake); format: cell-based; conditions: 96 h, percentage of control, 4 days; for activity at 0.1 µg/mL: 10^-1 μg/ml; for activity at 0.01 µg/mL: 10^-2 μg/ml; for activity at 0.001 µg/mL: 10^-3 μg/ml
Method in brief: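 Umbilical cord blood MNF (Lymphoprep) cultured at 1×10^6 cells/ml in RPMI 1640 with 10% autologous plasma with sample for 4 days at 37° C, 5% CO2. 0.5 μCi/well 3H-TdR then added for 8 h, and nuclear uptake measured by liquid scintillation counting.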

[6] = system: marrow cells (mononuclear cell fraction); assay: Effect on marrow cell of monkey (3H-TdR uptake); format: cell-based, croo monkey; conditions: Primates, 96 h, percentage of control, 4 days
Experimental: Pharmacological Test 2: Effect on Marrow Cell of Monkey
Marrow cells were prepared from the humerus of a croo monkey, and an MNF obtained by fractionation using a Lymphoprep (Nycomed Pharma AS, Oslo, Norway) was used in the following experiment.
The MNF was suspended in an RPMI 1640 medium added with 10% blood plasma of a croo monkey to make its concentration 1×10^6 cells/ml.
10 μl/well of a sample with a predetermined concentration and 100 μl/well of the above-prepared MNF were placed on a round-bottomed 96 well plate, and incubated under the conditions of 37° C. and 5% CO2 for 4 days. Thereafter, 0.5 μCi/well of ^3 H-TdR was added. After 6 hours, the cells were harvested, and the amount of the ^3 H-TdR taken in the nuclei was measured by a liquid scintillation counter.

[7] = day 10, controls per series 10, 10, 10, 10, 10, 8
[8] = day 15, controls per series 8, 9, 5, 5, 7, 1
[9] = day 20, controls per series 4, 5, 1, 2, 3, 0
[10] = day 25, controls per series 3, 3, 0, 0, 2, 0
[11] = day 30, controls per series 1, 1, 0, 0, 0, 0

SMILES | activity at 0.1 µg/mL [1] | activity at 0.01 µg/mL [1] | activity at 0.001 µg/mL [1] | Number of Surviving Mice [2, 7] | Number of Surviving Mice [2, 8] | Number of Surviving Mice [2, 9] | Number of Surviving Mice [2, 10] | Number of Surviving Mice [2, 11] | Number of Surviving Mice ([2]; day 35, all controls 0) | Number of Surviving Mice ([2]; day 40, all controls 0) | death of rats (Acute toxicity; 10 mg/kg i.v.) | post-mortem examination (Acute toxicity; i.v. 0.1, 1.0 or 10 mg/kg) | Number of Blood Platelets (blood platelets [3]) | Number of Blood Platelets (blood platelets [4]) | activity at 0.1 µg/mL [5] | activity at 0.01 µg/mL [5] | activity at 0.001 µg/mL [5] | activity at 0.1 µg/mL ([6]; 10^-1 μg/ml) | activity at 0.01 µg/mL ([6]; 10^-2 μg/ml)
CCCCCCCCCCCCCCC[C@@H](O)[C@H](CO[C@H]1O[C@H](CO)[C@H](O)[C@H](O)[C@H]1O)NC(=O)CCCCCCCCCCCCC [Compound 5, (2S,3R)-1-(α-D-galactopyranosyloxy)-2-tetradecanoylamino-3-octadecanol] | 377% | 261% | 234% | 10 mice | 9 mice | 9 mice | 9 mice | 9 mice | 9 mice | 9 mice | the rats did not die | no abnormality was found | 20.3 ± 4.5 × 10^4 /μl | 106.0 ± 9.0 × 10^4 /μl |  |  |  |  | 
CCCCCCCCCCCCCCCCCCCCCCCC[C@@H](O)C(=O)N[C@@H](CO[C@H]1O[C@H](CO)[C@H](O)[C@H](O)[C@H]1O)[C@H](O)[C@H](O)CCCCCCCCCCCCCC [Compound 25] | 331% | 161% | 153% | 10 mice | 10 mice | 7 mice | 7 mice | 5 mice | 5 mice | 5 mice |  |  | 15.6 ± 5.3 × 10^4 /μl | 124.1 ± 14.7 × 10^4 /μl | 336% | 319% | 229% | 184% | 186%
CCCCCCCCCCCCCCCCCCCCCCCCCCCC(=O)N[C@@H](CO[C@H]1O[C@H](CO)[C@H](O)[C@H](O)[C@H]1O)[C@H](O)[C@H](O)CCCCCCCCCCCCC [Compound 34, (2S,3S,4R)-1-(α-D-galactopyranosyloxy)-2-octacosanoylamino-3,4-heptadecanediol] | 272% | 183% | 150% | 10 mice | 10 mice | 10 mice | 9 mice | 9 mice | 9 mice | 9 mice |  |  | 24.4 ± 5.6 × 10^4 /μl | 110.1 ± 9.0 × 10^4 /μl | 467% | 258% | 291% |  | 

— US6071884A, “Pharmaceutical compositions and therapeutic methods” (Kirin Beer Kabushiki Kaisha, priority 1992, dated 2000)
